pEC50: −log10 of the molar value.
Molecular target: T1, alpha-A crystalline (Homo sapiens, UniProt P02489)
T1 sequence (P02489 1-173): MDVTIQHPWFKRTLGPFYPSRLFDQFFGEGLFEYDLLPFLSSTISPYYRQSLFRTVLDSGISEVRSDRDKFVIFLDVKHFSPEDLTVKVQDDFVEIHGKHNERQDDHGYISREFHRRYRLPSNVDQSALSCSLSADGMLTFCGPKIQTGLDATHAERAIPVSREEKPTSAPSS
Assay: Ca+2 and UVC induced aggregation of alpha-A crystalline (absorbance screen);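 also: recombinant human alpha-A crystallin (500 µg/ml) preincubated 30 min with compound, then UV-induced aggregation tracked by absorbance at time points from 0 to 120 min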
Type: biochemical
Settings: 200 μM; Ca+2 and UVC induced aggregation of alpha-A crystalline

SMILES | Percent protection (at 200 μM)
Oc1cc(O)c2c(c1)O[C@H](c1ccc(O)c(O)c1)[C@H](O)C2 [CAP1049] | −5%
COc1ccc(CCNC(=O)CCC2CCCCC2)cc1OC [CAP1224] | 46%
COc1ccc(CCNC(=O)CCCC(=O)NCCc2ccc(OC)c(OC)c2)cc1OC [CAP1228, N,N′-bis[2-(3,4-dimethoxyphenyl)ethyl]pentanediamide] | 60%
CC(CCc1ccc(O)cc1)NCCc1ccc(O)c(O)c1 (stereo not drawn) [CAP1264] | 3%
CC(CCc1ccc(O)cc1)NCCc1ccc(O)c(O)c1 (stereo not drawn) [CAP1266] | −14%
COc1ccc(CCNC(=O)CCCC(=O)NCCc2ccc(OC)c(OC)c2)cc1OC [CAP1278] | 38%
Oc1cc(O)c2c(c1)O[C@H](c1ccc(O)c(O)c1)[C@H](O)C2 [CAP3032] | −16%
Oc1cc(O)c2c(c1)O[C@H](c1ccc(O)c(O)c1)[C@H](O)C2 [CAP3042] | −17%

Same assay, conditions: 200 μM; Ca+2 and UVC induced aggregation of alpha-A crystalline; read-out: Percent protection (at 200 μM)

SMILES | inhibition at 200 µM
CNC[C@H](O)c1ccc(O)c(O)c1 [CAP1043] | -5%
Oc1ccc(C2CNCCc3c2cc(O)c(O)c3Cl)cc1 (stereo not drawn) [CAP1044] | -16%
Oc1cc(O)c2c(c1)O[C@H](c1ccc(O)c(O)c1)[C@@H](O)C2 [CAP1047] | -17%
O=C(O)[C@H]1OC(Oc2cc3oc(-c4ccccc4)cc(=O)c3c(O)c2O)[C@H](O)[C@@H](O)[C@@H]1O (stereo partly drawn) [CAP1052] | 3%
O=c1c(O)c(-c2ccc(O)c(O)c2)oc2cc(O)ccc12 [CAP1053] | 52%
C[C@@](Cc1ccc(O)c(O)c1)(NN)C(=O)O [CAP1055] | 1%
C[C@](N)(Cc1ccc(O)c(O)c1)C(=O)O [CAP1056] | -5%
O=C(NCCc1ccc(O)c(O)c1)C12CC3CC(CC(C3)C1)C2 [CAP1057] | -8%
COc1cc(CC2NCCc3cc(O)c(O)cc32)cc(OC)c1OC (stereo not drawn) [CAP1058] | -27%
O=C1c2ccccc2C(=O)c2c1cc(S(=O)(=O)O)c(O)c2O [CAP1072] | 53%
COc1cc(/C=N/c2cccc(C)n2)cc([N+](=O)[O-])c1O [CAP1110] | 19%
COc1cc(CNc2cccc(C)n2)cc([N+](=O)[O-])c1O [CAP1112] | 12%
CCN(CC)C(=O)/C(C#N)=C/c1cc(O)c(O)c([N+](=O)[O-])c1 [CAP1159] | 27%
O=C(OC[C@H]1OC(OC(=O)c2cc(O)c(O)c(OC(=O)c3cc(O)c(O)c(O)c3)c2)[C@H](OC(=O)c2cc(O)c(O)c(OC(=O)c3cc(O)c(O)c(O)c3)c2)[C@@H](OC(=O)c2cc(O)c(O)c(OC(=O)c3cc(O)c(O)c(O)c3)c2)[C@@H]1OC(=O)c1cc(O)c(O)c(OC(=O)c2cc(O)c(O)c(O)c2)c1)c1cc(O)c(O)c(OC(=O)c2cc(O)c(O)c(O)c2)c1 (stereo partly drawn) [CAP1176] | 76%
Oc1ccc(CCNCCCCCCNCCc2ccccc2)cc1O [CAP1215] | -47%
O=C1c2ccc(S(=O)(=O)O)c(O)c2C(=O)c2ccc(S(=O)(=O)O)c(O)c21 [CAP1219] | -5%
O=C1c2ccccc2C(=O)c2c1ccc(S(=O)(=O)O)c2O [CAP1220] | 20%
COc1ccc(CCNC(=O)C2CCCCC2)cc1OC [CAP1222] | 38%
CCC(CC)C(=O)NCCc1ccc(OC)c(OC)c1 [CAP1223] | 29%
COc1ccc(CCNC(=O)CCCCC(=O)NCCc2ccc(OC)c(OC)c2)cc1OC [CAP1225] | 50%
COc1ccc(CCNC(=O)C2CCC2)cc1OC [CAP1226, N-[2-(3,4-dimethoxyphenyl)ethyl]cyclobutanecarboxamide] | 72%
COc1ccc(CCNC(=O)C2CCN(C(=O)Cc3ccccc3)CC2)cc1OC [CAP1227, N-[2-(3,4-dimethoxyphenyl)ethyl]-1(phenylacetyl)-4-piperidinecarboxamide] | 46%
COc1ccc(CCNC(=O)CCCC(=O)NCOc2ccc(OC)cc2)cc1 [CAP1229] | 22%
COc1ccc(CCNC(=O)C2CC2)cc1OC [CAP1230, N-[2-(3,4-dimethoxyphenyl)ethyl]cyclopropanecarboxamide] | 18%
COc1ccc(CCNC(=O)C2CCCC2)cc1OC [CAP1231, N-[2-(3,4-dimethoxyphenyl)ethyl]cyclopentanecarboxamide] | 51%
COc1ccc(CCNC(=O)C2CCN(C(=O)c3ccc(F)cc3)CC2)cc1OC [CAP1232] | 41%
COc1ccc(CCNC(=O)CCCC2CCCC2)cc1OC [CAP1236] | -2%

SMILES | inhibition at 200 µM
O=C(CC1CCC1)NCCc1ccc(O)c(O)c1 [CAP1239] | 23%
CCCCCCCCCCCCCCCCCC(=O)NCCc1ccc(O)c(O)c1 [CAP1241] | 135%
NCCc1ccc(O)c(O)c1 [CAP1265] | -6%
COc1ccc(CCNC(=O)CCC2CCCCC2)cc1OC [CAP1274] | 55%
COc1ccc(CC(=O)NC2CCCCCCCCCCC2)cc1OC [CAP1279] | 5%
O=C(NCCc1ccccc1)C1CCC(C(=O)NCCc2ccccc2)CC1 (stereo not drawn) [CAP1280] | 44%
COc1ccc(CCNC(=O)CC23CC4CC(CC(C4)C2)C3)cc1OC [CAP1281] | 64%
NC(=O)c1ncn([C@@H]2O[C@H](CO)[C@@H](O)[C@H]2O)n1 [CAP1380] | 16%
COc1cc2cc(C(=O)O)[nH]c2cc1OC [CAP1447] | 22%
O=c1c(O)c(-c2ccc(O)c(O)c2)oc2cc(O)cc(O)c12 [CAP1451] | 35%
Oc1cc(O)c2c(c1)O[C@@H](c1ccc(O)c(O)c1)[C@@H](O)C2 [CAP1458] | -17%
COc1cc(/C=C/C(=O)/C=C(O)/C=C/c2ccc(O)c(OC)c2)ccc1O [CAP1459] | -95%
O=C(O[C@H]1Cc2c(O)cc(O)cc2O[C@H]1c1cc(O)c(O)c(O)c1)c1cc(O)c(O)c(O)c1 [CAP1460] | 1%
CC(=O)Oc1cc2cc[nH]c2cc1OC(C)=O [CAP1517] | 40%
COC(=O)[C@@H](NC(C)=O)c1ccc(OC(C)=O)c(OC(C)=O)c1 [CAP1518] | -4%
COc1cc2cc[nH]c2cc1OC [CAP1519] | 9%
COc1cc2nc(N3CCN(C(=O)C4COc5ccccc5O4)CC3)nc(N)c2cc1OC (stereo not drawn) [CAP3035] | 114%
O=C1O[C@H]([C@@H](O)CO)C(O)=C1O [CAP3037] | -2%
COc1cc(/C=C/C(=O)CC(=O)/C=C/c2ccc(O)c(OC)c2)ccc1O [CAP3040] | 4%
O=C(O)/C=C/c1ccc(O)c(O)c1 [CAP3062] | 16%
COc1ccc(/C=C/C(=O)O)cc1OC [CAP3064] | 12%
CC(=O)/C=C/c1ccc(O)c(O)c1 [CAP3065] | -32%
COc1ccc(/C=C/C(C)=O)cc1OC [CAP3066] | 21%
CC(=O)c1cc(C)cc([N+](=O)[O-])c1O [CAP3071] | 30%
COc1cc(C(=O)O)cc(OC)c1O [CAP3107] | 7%
Oc1cc2cc[nH]c2cc1O [CP1194] | 25%

Same assay, conditions: preventing Ca+2 and UVC induced aggregation of alpha-A crystalline

SMILES | pEC50
N[C@@H](Cc1ccc(O)c(O)c1)C(=O)O [CAP1042] | 3.07
O=c1c(O)c(-c2ccc(O)c(O)c2)oc2cc(O)ccc12 [CAP1053] | 3.34
CCN(CC)C(=O)/C(C#N)=C/c1cc(O)c(O)c([N+](=O)[O-])c1 [CAP1159] | 3.50
COc1ccc(CCNC(=O)CCC2CCCCC2)cc1OC [CAP1224] | 3.06
COc1ccc(CCNC(=O)C2CCC2)cc1OC [CAP1226, N-[2-(3,4-dimethoxyphenyl)ethyl]cyclobutanecarboxamide] | 4.34
COc1ccc(CCNC(=O)C2CCN(C(=O)Cc3ccccc3)CC2)cc1OC [CAP1227, N-[2-(3,4-dimethoxyphenyl)ethyl]-1(phenylacetyl)-4-piperidinecarboxamide] | 3.54
O=C(NCCc1ccccc1)C1CCC(C(=O)NCCc2ccccc2)CC1 (stereo not drawn) [CAP1280] | 3.71
Oc1cc2cc[nH]c2cc1O [CP1194] | 2.96

Same assay, conditions: read-out: Percent protection (at 200 μM)

SMILES | inhibition at 200 µM
CC(CCc1ccc(O)cc1)NCCc1ccc(O)c(O)c1 (stereo not drawn) [CAP1051] | -28%
CC1CCC(NC(C)Cc2ccc(O)c(O)c2)CC1 (stereo not drawn) [CAP1240] | -13%
Cc1cc2c(C(C)C)c(O)c(O)c(C=O)c2c(O)c1-c1c(C)cc2c(C(C)C)c(O)c(O)c(C=O)c2c1O [CAP1356] | -46%

Test system: SRA 01/04 HLE cells
Assay: Cell-based UV protection, viability by Alamar blue;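 also: cells pretreated with compound at a range of concentrations before UV irradiation, viability read 24 h after exposure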
Set-up: species or system human
Settings: Table 5

SMILES | Cell-based [UV] (max % net protection)
Nc1ccc(Cl)cc1C(=O)c1ccccc1Cl [CAP4126] | 0%
O=C(c1ccccc1)c1ccccc1 [CAP4127] | 55%
Nc1ccc(C(=O)c2ccccc2)cc1 [CAP4128] | 23%
O=C(c1ccccc1)c1ccc([N+](=O)[O-])cc1 [CAP4131] | 0%
COc1ccc(C(=O)c2ccc([N+](=O)[O-])cc2)cc1S(=O)(=O)NCc1ccccc1 [CAP4256] | 7%
COc1ccc(C(=O)c2ccc([N+](=O)[O-])cc2)cc1S(=O)(=O)NC1CCCCC1 [CAP4257] | 19%
CCc1onc2ccc(C(=O)c3ccccc3)cc12 [CAP4258] | 36%

Test system: human lens epithelial (HLE) cells
Assay: Cell-based heat protection, viability by Alamar blue
Set-up: Cell Heat % protection: concentration or dose not given beside the values
Settings: Table 5
Description: Alamar blue was used for assessing viability. Mean±SEM of the measurements are shown.
Cell-based using assays using human lens epithelial cell lines SRA 01/04 and B3 were also performed. The cells were exposed to UV or heat and cell viability assessed 24 hours post-exposure by Alamar blue staining. In another experiment, SRA 01/04 cells were pre-incubated with varying concentrations of compounds two hours prior to UV exposure. Relative protection was measured as percent viability compared to vehicle control 24 hours following UV exposure. Mean±SEM of the measurements are shown.

SMILES | Cell-based [Heat] (max % net protection)
O=C(c1ccccc1)c1ccccc1 [CAP4127] | 9%

Same assay, conditions: Table 8

SMILES | Cell Heat % protection
Nc1cc(S(=O)(=O)O)cc2cc(S(=O)(=O)O)cc(O)c12 [CAP4179] | 29%
Nc1ccc2c(O)cc(S(=O)(=O)O)cc2c1 [CAP4180] | 22%
O=S(=O)(O)c1cc(O)c2cc(Nc3ccccc3)ccc2c1 [CAP4183] | 17%
O=S(=O)([O-])c1cc(O)c2cc(O)ccc2c1.[Na+] [CAP4186] | 17%
Nc1ccc2cc(S(=O)(=O)[O-])cc(O)c2c1.[Na+] [CAP4187] | 19%
Nc1c(O)cc(S(=O)(=O)O)c2ccccc12 [CAP4188] | 2%
Nc1ccc2c(O)cc(S(=O)(=O)O)cc2c1 [CAP4190] | 15%

Reference: patent US11872236B2, “Pharmacological agents for treating ocular diseases” (CALASIA PHARMACEUTICALS, INC., priority 2018, dated 2024)
